Data taken from US7935719B2, “N-substituted-azacyclylamines as histamine-3 antagonists” (Wyeth LLC, priority 2006, dated 2011).
Counter-ions that a name gives are not always drawn.

Tests used:
Histamine Receptor H3 [1] = target: T1, Histamine Receptor H3 (Homo sapiens, UniProt Q9Y5N1); experiment: Cyclic AMP assay for histamine receptor H3 antagonism activity; type: cell-based; design: expressed in transfected cells; conditions: stable H3 cells, histamine plus 10 μM forskolin, 30 min at 30° C., HitHunter cAMP kit
Procedure: Cyclic Amp Assay for Histamine Receptor H3 Antagonism Activity.
Stable H3 cells are maintained in tissue culture flask in DMEM with high glucose, 10% FBS, 1× pen/strep, 500 ug/ml GY18, until experiment. Culture media is removed and cells are washed twice with PBS w/Ca+2 and Mg+2 plus 500 μM IBMX. Cells are then detached by tapping on the side of the flask and resuspend in the same buffer. Two thousand cells/well are incubated with 1 μM histamine plus 10 μM forskolin plus various concentrations of compounds in a total volume of 30 μL in 96 well plates for 30 min at 30° C. Final test compound concentrations range from 10^-4 M to 10-9.5 M at full log dilutions. Cyclic AMP levels are measured using HitHunter cAMP kit from Discoverx, cat#900041 according to manufacturer's instruction. Chemiluminescence signals are detected using Top Count (Packard). Cyclic AMP levels in control cells receiving 10 μM forskolin plus 100 nM histamine are considered 0%, and in cells receiving 10 uM forskolin plus 100 nM histamine plus 1 μM clobenpropit are considered 100%. Data are expressed as % control and analyzed using Prizm software. The Kb values are calculated using the following equation, KB=EC50 or IC50/[1+(ligand/Kd)].

Histamine Receptor H3 [2] = target: T1, Histamine Receptor H3; experiment: Methyl histamine binding in human histamine H3 receptor cell line; design: expressed in transfected cells; host or cells: HEK293T; conditions: membranes of stably transfected HEK293T cells, radioligand 1 nM, Ki from IC50 by Cheng-Prusoff
Procedure: Evaluation of Methyl Histamine Binding in Human Histamine H3 Receptor Cell Line
The affinity of test compounds for the histamine 3 (H3) receptor is evaluated in the following manner. […] Cells are scraped from the plate, transferred to centrifuge tubes, washed one time in PBS by centrifugation in a Sorvall RT7 Plus centrifuge (2000 rpm 10 minutes, 4° C.). The resulting pellets are stored at −80° C. until ready for use. Cells are re-suspended in buffer (50 mM Tris pH=7.5) and placed in a Dounce homogenizer, douncing ten times to homogenize cells. The homogenate is spun down by centrifugation (Sorvall RT7 Plus, 1800 rpm 10 minutes, 4° C.). The supernatant is placed in a Corex tube and spun down by centrifugation (Sorvall RC 5c Plus, 17,000 rpm 20 minutes, 4° C.). The pellet is resuspended in buffer (50 mM Tris, pH 7.5). Protein concentration (ug/ul) is determined using the Micro-BCA Protein Determination. The binding assay is set up in a 96 well microtiter plate in a total volume of 250 uL. Non-specific binding is determined in the presence of 10 uM clobenpropit. The final radioligand concentration is 1 nM. The test compound is serially diluted using the Beckman Biomek2000 to a final approximate range of 100 uM to 100 pM. Membranes are suspended in buffer, homogenized in 2 bursts of ten seconds using a Vitris mechanical homogenizer set at power setting 5. Ten μg of membranes are added to each well. Following a one hour incubation at 30° C., the reaction is terminated by the addition of ice cold buffer and rapid filtration with a Packard Filtermate Harvester through a GF/B filter pre-soaked with 1% PEI for one hour. The plate is dried for one hour at 37° C. and 60 μL Microscint Scintillant is added to each well. The CPM per well is measured on a Packard Top Count NXT. Ki values are determined in nM. […] CPM values are expressed as % specific binding and plotted vs compound concentration. A curve is fitted using a four-parameter logistic fit and the IC50 value is determined. The Ki is calculated from this using the Cheng-Prusoff equation: […]=IC50/1+(L/Kd) where L=concentration of free radioligand used in the assay, and Kd is the dissociation constant of the radioligand for the receptor. L is determined for each experiment by counting an aliquot of the diluted radioligand (corresponding to that added to each well) and the Kd has previously been determined under identical conditions for this cell line/radioligand.

T1 sequence (Q9Y5N1 whole entry): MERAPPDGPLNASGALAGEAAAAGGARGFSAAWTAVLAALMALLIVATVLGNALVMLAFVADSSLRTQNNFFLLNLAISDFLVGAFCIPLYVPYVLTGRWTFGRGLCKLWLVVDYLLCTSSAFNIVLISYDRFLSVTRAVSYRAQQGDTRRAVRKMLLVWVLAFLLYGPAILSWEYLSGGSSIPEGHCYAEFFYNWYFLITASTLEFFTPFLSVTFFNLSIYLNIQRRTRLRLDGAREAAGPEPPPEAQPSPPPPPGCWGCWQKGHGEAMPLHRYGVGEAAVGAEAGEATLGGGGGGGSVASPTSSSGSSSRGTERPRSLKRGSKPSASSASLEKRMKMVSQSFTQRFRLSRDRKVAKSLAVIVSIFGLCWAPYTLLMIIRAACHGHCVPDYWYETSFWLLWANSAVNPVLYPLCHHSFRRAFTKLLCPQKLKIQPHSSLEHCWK

Kb (Histamine Receptor H3 [1])	Ki (Histamine Receptor H3 [2])	SMILES
< 10 nM	< 10 nM	O=C(c1ccc(-n2cnc3ccccc32)cc1)N1CCC(N2CCCC2)C1 (centres unmarked) [Example 2, 1′-[4-1H-benzimidazol-1-yl)benzoyl]-1,3′-bipyrrolidine hydrochloride]
25.1 to 50 nM	< 10 nM	O=C(c1ccc(-n2cnc3ccccc32)cc1)N1CC[C@H](N2CCCC2)C1 [Example 5, (3′S)-1′-[4-(1H-benzimidazol-1-yl)benzoyl]-1,3′-bipyrrolidine hydrochloride]
< 10 nM	< 10 nM	C[C@H]1CCCN1[C@H]1CCN(C(=O)c2ccc(-n3cnc4ccccc43)cc2)C1 [Example 7, (2S,3′S)-1′-[4-(1H-benzimidazol-1-yl)benzoyl]-2-methyl-1,3′-bipyrrolidine]
< 10 nM	< 10 nM	O=C(c1ccc(-n2cnc3ccccc32)cc1)N1CC[C@H](N2CCCCCC2)C1 [Example 11, 1-(4-{[(3S)-3-azepan-1-ylpyrrolidin-1-yl]carbonyl}phenyl)-1H-benzimidazole]
< 10 nM	< 10 nM	Cc1nc2ccccc2n1-c1ccc(C(=O)N2CC[C@H](N3CCC[C@H]3C)C2)cc1 [Example 21, (2R,3′S)-2-methyl-1′-[4-(2-methyl-1H-benzimidazol-1-yl)benzoyl]-1,3′-bipyrrolidine]
< 10 nM	< 10 nM	Cc1nc2ccccc2n1-c1ccc(C(=O)N2CC[C@H](N3CCC[C@@H]3C)C2)cc1 [Example 22, (2S,3′S)-2-methyl-1′-[4-(2-methyl-1H-benzimidazol-1-yl)benzoyl]-1,3′-bipyrrolidine]
< 10 nM	< 10 nM	Cc1nc2ccccc2n1-c1ccc(C(=O)N2CC[C@H](N3CCCC(C)C3)C2)cc1 (stereo partly drawn) [Example 24, 2-methyl-1-(4-{[(3S)-3-(3-methylpiperidin-1-yl)pyrrolidin-1-yl]carbonyl}phenyl)-1H-benzimidazole]
< 10 nM	< 10 nM	Cc1nc2ccccc2n1-c1ccc(C(=O)N2CC[C@H](N3CCCCC3)C2)cc1 [Example 28, 2-methyl-1-(4-{[(3S)-3-piperidin-1-ylpyrrolidin-1-yl]carbonyl}phenyl)-1H-benzimidazole]
< 10 nM	< 10 nM	O=C(c1ccc(-n2ccc3c(F)cccc32)cc1)N1CC[C@H](N2CCCC2)C1 [Example 31, (3′S)-1′-[4-(4-fluoro-1H-indol-1-yl)benzoyl]-1,3′-bipyrrolidine]
< 10 nM	< 10 nM	COc1ccc2c(ccn2-c2ccc(C(=O)N3CC[C@H](N4CCCC4)C3)cc2)c1 [Example 33, (3′S)-1′-[4-(5-methoxy-1H-indol-1-yl)benzoyl]-1,3′-bipyrrolidine]
< 10 nM	< 10 nM	N#Cc1ccc2c(ccn2-c2ccc(C(=O)N3CC[C@H](N4CCCC4)C3)cc2)c1 [Example 36, 1-{4-[(3′S)-1,3′-bipyrrolidin-1′-ylcarbonyl]phenyl}-1H-indole-5-carbonitrile]
< 10 nM	< 10 nM	O=C(c1ccc(-n2ccc3cc(F)ccc32)cc1)N1CC[C@H](N2CCCC2)C1 [Example 37, (3′S)-1′-[4-(5-fluoro-1H-indol-1-yl)benzoyl]-1,3′-bipyrrolidine]
< 10 nM	< 10 nM	O=C(c1ccc(-n2ccc3cccc(F)c32)cc1)N1CC[C@H](N2CCCC2)C1 [Example 39, (3′S)-1′-[4-(7-fluoro-1H-indol-1-yl)benzoyl]-1,3′-bipyrrolidine]
